ChEMBL document CHEMBL1137409, “Discovery of phenyl acetic acid substituted quinolines as novel liver X receptor agonists for the treatment of atherosclerosis” (J Med Chem, 2006)

Experiments:
[1] = biological target: T1, Oxysterols receptor LXR-beta (Homo sapiens, UniProt P55055)
T1 sequence (P55055 whole entry): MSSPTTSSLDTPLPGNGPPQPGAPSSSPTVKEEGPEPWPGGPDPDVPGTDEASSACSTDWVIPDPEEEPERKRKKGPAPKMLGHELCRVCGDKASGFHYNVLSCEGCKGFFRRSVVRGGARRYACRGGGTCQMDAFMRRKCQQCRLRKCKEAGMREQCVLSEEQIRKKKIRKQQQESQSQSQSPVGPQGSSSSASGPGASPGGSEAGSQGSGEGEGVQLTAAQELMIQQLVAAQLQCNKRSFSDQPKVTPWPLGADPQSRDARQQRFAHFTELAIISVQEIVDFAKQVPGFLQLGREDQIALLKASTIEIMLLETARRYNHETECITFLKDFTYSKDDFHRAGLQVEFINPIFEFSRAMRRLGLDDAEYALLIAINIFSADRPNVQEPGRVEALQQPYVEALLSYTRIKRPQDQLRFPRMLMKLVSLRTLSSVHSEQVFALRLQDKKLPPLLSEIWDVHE

[2] = biological target: T2, Oxysterols receptor LXR-alpha (Homo sapiens, UniProt Q13133)
T2 sequence (Q13133 whole entry): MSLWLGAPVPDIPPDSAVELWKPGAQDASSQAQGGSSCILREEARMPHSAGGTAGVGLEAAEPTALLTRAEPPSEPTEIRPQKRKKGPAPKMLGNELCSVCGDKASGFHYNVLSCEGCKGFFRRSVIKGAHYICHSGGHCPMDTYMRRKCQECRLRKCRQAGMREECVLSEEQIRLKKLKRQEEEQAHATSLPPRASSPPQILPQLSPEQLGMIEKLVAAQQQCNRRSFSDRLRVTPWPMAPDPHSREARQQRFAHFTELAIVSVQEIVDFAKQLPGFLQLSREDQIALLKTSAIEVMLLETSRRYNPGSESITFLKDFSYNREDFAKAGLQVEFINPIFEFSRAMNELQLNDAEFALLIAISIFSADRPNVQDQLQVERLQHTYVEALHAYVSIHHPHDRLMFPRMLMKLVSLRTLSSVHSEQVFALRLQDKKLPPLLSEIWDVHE

[3] = biological target: T1, Oxysterols receptor LXR-beta; remark: listed apart in the source
[4] = Half life in human liver microsomes; assay type: ADME, Microsome
[5] = biological target: T3, Peroxisome proliferator-activated receptor alpha (Homo sapiens, UniProt Q07869); assay: Agonist activity at human PPAR alpha by GAL4 transactivation assay; assay type: functional
T3 sequence (Q07869 whole entry): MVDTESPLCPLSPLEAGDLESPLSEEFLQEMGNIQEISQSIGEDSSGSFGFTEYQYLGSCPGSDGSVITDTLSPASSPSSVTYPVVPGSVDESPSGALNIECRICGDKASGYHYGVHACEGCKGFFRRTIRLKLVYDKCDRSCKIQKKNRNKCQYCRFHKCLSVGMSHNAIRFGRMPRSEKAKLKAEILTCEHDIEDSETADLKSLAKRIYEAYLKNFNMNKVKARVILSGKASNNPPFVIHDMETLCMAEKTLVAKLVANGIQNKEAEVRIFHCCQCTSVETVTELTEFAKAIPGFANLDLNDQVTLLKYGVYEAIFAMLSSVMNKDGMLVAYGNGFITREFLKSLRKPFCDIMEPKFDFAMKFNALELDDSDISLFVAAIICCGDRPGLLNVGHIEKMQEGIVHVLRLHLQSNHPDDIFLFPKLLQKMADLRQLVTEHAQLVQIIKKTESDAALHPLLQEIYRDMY

Huh-7 [6] = assay: Induction of SREBP1c expression in Huh7 cell line relative to TO901317; assay type: functional, Homo sapiens
[7] = biological target: T4, Peroxisome proliferator-activated receptor gamma (Homo sapiens, UniProt P37231)
T4 sequence (P37231 whole entry): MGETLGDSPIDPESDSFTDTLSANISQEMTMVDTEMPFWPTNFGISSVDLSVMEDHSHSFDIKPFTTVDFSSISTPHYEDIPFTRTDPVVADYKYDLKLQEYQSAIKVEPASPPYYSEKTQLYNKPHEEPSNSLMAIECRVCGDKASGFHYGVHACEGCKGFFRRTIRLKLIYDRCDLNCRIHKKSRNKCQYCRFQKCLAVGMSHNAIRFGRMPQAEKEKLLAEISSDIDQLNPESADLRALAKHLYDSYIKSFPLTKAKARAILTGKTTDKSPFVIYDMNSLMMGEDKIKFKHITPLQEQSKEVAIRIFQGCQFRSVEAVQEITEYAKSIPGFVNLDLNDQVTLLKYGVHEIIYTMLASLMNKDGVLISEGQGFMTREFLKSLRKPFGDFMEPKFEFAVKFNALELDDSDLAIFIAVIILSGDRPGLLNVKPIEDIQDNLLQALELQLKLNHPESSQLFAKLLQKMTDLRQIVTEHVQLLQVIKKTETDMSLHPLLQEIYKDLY

THP-1 [8] = assay: Induction of ABCA1 expression in THP1 cell line; assay type: functional, cell-based; conditions: Homo sapiens
[9] = biological target: T5, Peroxisome proliferator-activated receptor delta (Homo sapiens, UniProt Q03181); assay: Agonist activity at human PPAR delta by GAL4 transactivation assay; assay type: functional
T5 sequence (Q03181 whole entry): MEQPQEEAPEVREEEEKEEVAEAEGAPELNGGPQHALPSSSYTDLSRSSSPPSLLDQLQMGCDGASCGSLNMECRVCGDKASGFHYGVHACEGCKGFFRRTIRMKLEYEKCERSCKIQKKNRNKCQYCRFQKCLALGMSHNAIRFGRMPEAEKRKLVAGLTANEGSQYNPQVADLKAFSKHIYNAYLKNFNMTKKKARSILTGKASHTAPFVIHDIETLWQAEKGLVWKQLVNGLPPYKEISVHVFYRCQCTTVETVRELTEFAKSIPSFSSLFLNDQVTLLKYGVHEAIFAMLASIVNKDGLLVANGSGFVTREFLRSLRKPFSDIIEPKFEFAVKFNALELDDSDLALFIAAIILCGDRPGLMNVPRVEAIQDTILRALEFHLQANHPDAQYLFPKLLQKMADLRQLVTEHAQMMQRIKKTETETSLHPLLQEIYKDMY

THP-1 [10] = assay: Induction of ABCA1 expression in THP1 cell line relative to TO901317; assay type: functional, Homo sapiens
Huh-7 [11] = assay: Induction of SREBP1c expression in Huh7 cell line; assay type: functional, cell-based; conditions: Homo sapiens
[12] = Half life in human liver microsomes at 20 uM; assay type: ADME, Microsome
Mus musculus = assay: Reduction of atherosclerotic lesion of thoracic aorta in LDLr knockout C57BL/6 mouse at 10 mg/kg/day, po after 8 weeks relative to control; assay type: functional; set-up: scale not given: the % may be the effect or the level left
[13] = AUC (0-infinity) in C57 mouse at 10 mg/kg, po; assay type: ADME, organism-based; set-up: time infinity, dose 10 mg/kg, route oral; conditions: plasma
[14] = Tmax in C57 mouse at 10 mg/kg, po; assay type: ADME, organism-based; set-up: dose 10 mg/kg, route oral; conditions: in vivo
[15] = Bioavailability in C57 mouse at 10 mg/kg, po; assay type: ADME, organism-based; conditions: in vivo
[16] = biological target: T2, Oxysterols receptor LXR-alpha; assay: Agonist activity at human LXR alpha expressed in Huh7 cells by GAL4 transactivation assay; assay type: functional, cell-based, Huh-7
[17] = Terminal half life in C57 mouse at 10 mg/kg, po; assay type: ADME, organism-based; set-up: dose 10 mg/kg, route oral; conditions: in vivo, read-out: beta t1/2 (converted)
[18] = biological target: T1, Oxysterols receptor LXR-beta; assay: Agonist activity at human LXR beta expressed in Huh7 cells by GAL4 transactivation assay; assay type: functional, cell-based, Huh-7
THP-1 [19] = assay: Stimulation of cholesterol efflux in THP1 cell line; assay type: functional, cell-based; conditions: Homo sapiens
[20] = Cmax in C57 mouse at 10 mg/kg, po; assay type: ADME, organism-based; set-up: dose 10 mg/kg, route oral; conditions: in vivo

| Compound | EC50 [1] [nM] | IC50 [2] [nM] | IC50 [3] [nM] | EC50 [5] [nM] | Efficacy (Huh-7 [6]) [%] | EC50 [7] [nM] | EC50 (THP-1 [8]) [nM] | EC50 [9] [nM] | Efficacy (THP-1 [10]) [%] | EC50 (Huh-7 [11]) [nM] | Activity (Mus musculus) [%] | also measured |
| --- | --- | --- | --- | --- | --- | --- | --- | --- | --- | --- | --- | --- |
| COC(=O)c1ccc(COc2cccc(-c3c(C(=O)c4ccccc4)cnc4c(C(F)(F)F)cccc34)c2)cc1 | 296 | > 1000 | > 1000 | – | – | – | – | – | – | – | – | – |
| O=C(O)Cc1ccc(COc2cccc(-c3c(Cc4ccccc4)cnc4c(C(F)(F)F)cccc34)c2)cc1 | – | – | – | 1310 | 106 | 680 | 55 | 627 | 172 | 45 | – | half-life [4]: 107 min |
| O=C(O)Cc1ccc(COc2cccc(-c3c(C(=O)c4ccccc4)cnc4c(C(F)(F)F)cccc34)c2)cc1 | – | – | – | – | – | – | – | – | – | – | – | half-life at 20 µM [12]: 3.5 min |
| O=C(O)Cc1cccc(OCCCN(Cc2cccc(C(F)(F)F)c2Cl)CC(c2ccccc2)c2ccccc2)c1 | 410 | 100 | 12 | – | – | – | – | – | – | – | 27 | – |
| O=C(O)Cc1ccc(CNc2cccc(-c3c(Cc4ccccc4)cnc4c(C(F)(F)F)cccc34)c2)cc1 | 33 | 7.6 | – | 1300 | 73 | 320 | 33 | 1320 | 151 | 15 | 45 | AUC(0-inf) [13]: 4440 ng·h/mL; Tmax [14]: 30 min; bioavailability [15]: 67%; EC50 [16]: 160 nM; half-life [17]: 78 min; EC50 [18]: 87 nM; EC50 (THP-1 [19]): 37 nM; Cmax [20]: 3740 ng/mL |
